Results as given in patent US20160264536A1, “HETEROCYCLIC COMPOUND” (Takeda Pharmaceutical Company Limited, priority 2013, published 2016).

Biological target: T1, human PDE2A3 enzyme (Homo sapiens, UniProt O00408)
T1 construct: Human PDE2A3 full-length gene was transduced into Sf9; His-tag; made in house; host or cells: Sf9 insect cells
Experiment: PDE enzyme inhibitory assay (SPA, [3H]cGMP substrate)
Type: biochemical
Conditions: compound 1 μM, substrate [3H]cGMP 77 nM, read-out: inhibitory rate (%) (1 μM)
Experimental: PDE Enzyme Inhibitory Assay
Human PDE2A3 full-length gene was transduced into Sf9, and human PDE2A3 enzyme was purified by His-tag affinity column and gel filtration. The enzyme was stored at −70° C. until use. PDE activity was measured by using a SPA (Scintillation Proximity Assay) (GE Healthcare). To evaluate the inhibitory activity of the compound, 10 μl of serial diluted compounds were reacted with 20 μl of PDE enzyme in assay buffer (50 mM HEPES-NaOH, 8.3 mM MgCl2, 1.7 mM EGTA, 0.1% BSA (pH 7.4)) for 30 min at room temperature. Final concentration of DMSO in the reaction solution was 1%. Compounds were tested in duplicate in 96-well half-area plates (Corning) or 384-well OptiPlate (PerkinElmer). To start the reaction, 10 μl of substrate [^3H]cGMP (final concentration 77 nM, PerkinElmer) was added to a total volume of 40 μl. After reaction for 60 min at room temperature, 20 μl of 20 mg/mL yttrium SPA beads containing zinc sulfate was added to terminate the reaction. After being settled for further 1 hour, the assay plates were counted in a scintillation counter (PerkinElmer) to allow calculation of inhibition rate. Inhibition rate was calculated on the basis of 0% control wells with enzyme and DMSO, and 100% control wells without enzyme.

T1 sequence (O00408 whole entry): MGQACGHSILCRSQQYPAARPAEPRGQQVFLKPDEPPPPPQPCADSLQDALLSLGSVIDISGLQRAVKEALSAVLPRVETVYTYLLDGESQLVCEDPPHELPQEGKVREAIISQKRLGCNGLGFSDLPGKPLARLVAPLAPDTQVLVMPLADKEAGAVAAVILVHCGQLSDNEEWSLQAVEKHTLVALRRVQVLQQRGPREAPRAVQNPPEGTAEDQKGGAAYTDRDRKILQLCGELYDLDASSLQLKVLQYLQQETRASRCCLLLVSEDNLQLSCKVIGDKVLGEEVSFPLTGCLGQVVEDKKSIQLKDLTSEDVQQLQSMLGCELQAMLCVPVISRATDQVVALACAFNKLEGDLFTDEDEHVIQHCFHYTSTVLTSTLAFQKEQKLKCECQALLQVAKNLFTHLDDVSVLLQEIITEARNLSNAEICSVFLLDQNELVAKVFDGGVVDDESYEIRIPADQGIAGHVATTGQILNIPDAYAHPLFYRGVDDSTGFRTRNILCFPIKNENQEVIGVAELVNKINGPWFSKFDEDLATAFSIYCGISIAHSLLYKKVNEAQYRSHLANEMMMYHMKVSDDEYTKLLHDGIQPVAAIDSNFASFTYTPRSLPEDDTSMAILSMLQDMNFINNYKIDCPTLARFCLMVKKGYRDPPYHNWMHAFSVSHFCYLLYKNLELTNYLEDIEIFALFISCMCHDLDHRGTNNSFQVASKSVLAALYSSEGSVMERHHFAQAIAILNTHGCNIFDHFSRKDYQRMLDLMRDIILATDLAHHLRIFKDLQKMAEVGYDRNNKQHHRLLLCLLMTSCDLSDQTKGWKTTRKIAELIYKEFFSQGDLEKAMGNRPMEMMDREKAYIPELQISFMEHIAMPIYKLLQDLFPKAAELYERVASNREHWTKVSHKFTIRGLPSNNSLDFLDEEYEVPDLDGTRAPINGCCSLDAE

| inhibition at 1 µM | SMILES |
| --- | --- |
| 94% | CC#Cc1nc(C(=O)N[C@H](COC)c2ccc(OC(F)(F)F)c(F)c2)cc(=O)[nH]1 [Example 111, N-((1S)-1-(3-fluoro-4-(trifluoromethoxy)phenyl)-2-methoxyethyl)-6-oxo-2-(prop-1-yn-1-yl)-1,6-dihydropyrimidine-4-carboxamide] |
| 100% | COC[C@@H](NC(=O)c1cc(=O)[nH]c(C2=CCCC2)n1)c1ccc(OC(F)(F)F)cc1 [Example 115, 2-(cyclopent-1-en-1-yl)-N-((1S)-2-methoxy-1-(4-(trifluoromethoxy)phenyl)ethyl)-6-oxo-1,6-dihydropyrimidine-4-carboxamide] |
| 99% | COCC(NC(=O)c1cc(=O)[nH]c(-c2ccccn2)n1)c1ccc(-n2cccc2)c(F)c1 (stereo not drawn) [Example 116, N-(1-(3-fluoro-4-(1H-pyrrol-1-yl)phenyl)-2-methoxyethyl)-6-oxo-2-(pyridin-2-yl)-1,6-dihydropyrimidine-4-carboxamide] |
| 95% | COC[C@@H](NC(=O)c1cc(=O)[nH]c(-c2ccco2)n1)c1ccc(OC(F)(F)F)c(F)c1 [Example 121, N-((1S)-1-(3-fluoro-4-(trifluoromethoxy)phenyl)-2-methoxyethyl)-2-(2-furyl)-6-oxo-1,6-dihydropyrimidine-4-carboxamide] |
| 96% | COC[C@@H](NC(=O)c1cc(=O)[nH]c(-c2ncc(OC)cc2OC)n1)c1ccc(OC(F)(F)F)c(F)c1 [Example 152, 2-(3,5-dimethoxypyridin-2-yl)-N-((1S)-1-(3-fluoro-4-(trifluoromethoxy)phenyl)-2-methoxyethyl)-6-oxo-1,6-dihydropyrimidine-4-carboxamide] |
| 100% | COC[C@@H](NC(=O)c1cc(=O)[nH]c(C2(C)CC2)n1)c1ccc(OC(F)(F)F)cc1 [Example 153, N-((1S)-2-methoxy-1-(4-(trifluoromethoxy)phenyl)ethyl)-2-(1-methylcyclopropyl)-6-oxo-1,6-dihydropyrimidine-4-carboxamide] |
| 94% | CO[C@H]1CCN(c2cncc(C(=O)N[C@@H](c3ccc(OC(F)(F)F)c(F)c3)C(C)(C)O)n2)C1 [Example 163, N-((1S)-1-(3-fluoro-4-(trifluoromethoxy)phenyl)-2-hydroxy-2-methylpropyl)-6-((3S)-3-methoxypyrrolidin-1-yl)pyrazine-2-carboxamide] |

Continued, molecule first:

| SMILES | inhibition at 1 µM |
| --- | --- |
| CC(C)(O)[C@@H](NC(=O)c1cc(=O)[nH]c(C2=CCCC2)n1)c1ccc(OC(F)(F)F)c(F)c1 [Example 114, 2-(cyclopent-1-en-1-yl)-N-((1S)-1-(3-fluoro-4-(trifluoromethoxy)phenyl)-2-hydroxy-2-methylpropyl)-6-oxo-1,6-dihydropyrimidine-4-carboxamide] | 104% |
| COC[C@@H](NC(=O)c1cc(=O)[nH]c(-c2ccsc2)n1)c1ccc(OC(F)(F)F)c(F)c1 [Example 120, N-((1S)-1-(3-fluoro-4-(trifluoromethoxy)phenyl)-2-methoxyethyl)-6-oxo-2-(3-thienyl)-1,6-dihydropyrimidine-4-carboxamide] | 103% |
| COC[C@@H](NC(=O)c1cc(=O)[nH]c(-c2ccoc2)n1)c1ccc(OC(F)(F)F)c(F)c1 [Example 122, N-((1S)-1-(3-fluoro-4-(trifluoromethoxy)phenyl)-2-methoxyethyl)-2-(3-furyl)-6-oxo-1,6-dihydropyrimidine-4-carboxamide] | 102% |
| COCC(NC(=O)c1cc(=O)[nH]c(C2=CCCC2)n1)c1ccc(-n2cccn2)c(F)c1 (stereo not drawn) [Example 129, 2-(cyclopent-1-en-1-yl)-N-(1-(3-fluoro-4-(1H-pyrazol-1-yl)phenyl)-2-methoxyethyl)-6-oxo-1,6-dihydropyrimidine-4-carboxamide] | 98% |
| Cn1cc(-c2cncc(C(=O)N[C@@H](c3ccc(OC(F)(F)F)c(F)c3)C(C)(C)O)n2)cn1 [Example 158, N-((1S)-1-(3-fluoro-4-(trifluoromethoxy)phenyl)-2-hydroxy-2-methylpropyl)-6-(1-methyl-1H-pyrazol-4-yl)pyrazine-2-carboxamide] | 97% |
